Experiments:
[1] = target: Voltage-gated inwardly rectifying potassium channel KCNH2 (Homo sapiens, UniProt Q12809); test: Displacement of 3H-dofetilide from human ERG
[2] = target: T1, Toll-like receptor 7 (Homo sapiens) (UniProt Q9NYK1); test: Agonist activity at human TLR7 expressed in HEK293 cells after 6 hrs by NFkappaB-luciferase reporter gene assay; assay type: cell-based
T1 sequence (whole entry): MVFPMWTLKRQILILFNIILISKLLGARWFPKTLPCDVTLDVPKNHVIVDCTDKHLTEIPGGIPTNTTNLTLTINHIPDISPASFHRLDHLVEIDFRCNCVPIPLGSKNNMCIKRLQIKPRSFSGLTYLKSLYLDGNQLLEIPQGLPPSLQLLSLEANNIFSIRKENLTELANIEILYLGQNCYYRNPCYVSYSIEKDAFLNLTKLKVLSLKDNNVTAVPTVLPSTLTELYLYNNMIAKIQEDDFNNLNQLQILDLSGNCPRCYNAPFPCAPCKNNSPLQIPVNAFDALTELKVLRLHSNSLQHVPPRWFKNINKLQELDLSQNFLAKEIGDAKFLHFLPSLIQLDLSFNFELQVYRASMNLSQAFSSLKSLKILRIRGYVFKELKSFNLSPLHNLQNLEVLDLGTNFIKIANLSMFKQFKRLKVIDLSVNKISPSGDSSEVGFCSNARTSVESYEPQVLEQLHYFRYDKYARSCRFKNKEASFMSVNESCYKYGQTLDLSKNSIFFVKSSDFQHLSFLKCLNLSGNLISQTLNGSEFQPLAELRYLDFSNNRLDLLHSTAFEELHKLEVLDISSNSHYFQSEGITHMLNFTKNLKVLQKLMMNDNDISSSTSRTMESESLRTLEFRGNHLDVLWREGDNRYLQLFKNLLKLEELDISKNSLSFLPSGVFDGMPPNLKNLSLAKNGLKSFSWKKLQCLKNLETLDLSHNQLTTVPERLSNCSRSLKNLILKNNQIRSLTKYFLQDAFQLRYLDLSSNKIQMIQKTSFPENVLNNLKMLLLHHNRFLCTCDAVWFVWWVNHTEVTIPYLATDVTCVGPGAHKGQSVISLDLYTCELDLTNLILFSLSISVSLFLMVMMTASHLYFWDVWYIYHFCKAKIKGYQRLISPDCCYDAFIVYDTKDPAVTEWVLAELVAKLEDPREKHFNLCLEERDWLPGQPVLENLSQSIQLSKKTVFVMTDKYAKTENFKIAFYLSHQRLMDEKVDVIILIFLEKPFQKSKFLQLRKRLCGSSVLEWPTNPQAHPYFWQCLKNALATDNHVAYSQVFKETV

[3] = target: T1, Toll-like receptor 7 (Homo sapiens); test: Agonist activity at TLR7 in human PBMC assessed as suppression of HCV replicon replication in human HuH7 luc/neo cells harboring RNA encoding bicistronic expression construct comprising wild type HCV type 1b NS3-NS5B regions exposed to conditioned media from compound treated PBMCs after 24 hrs by luciferase reporter gene assay; assay type: cell-based
[4] = Cytotoxicity against HEK293 cells transfected with the CMV-TLR7 construct assessed as reduction in cell viability after 6 hrs by ATPlite assay; assay type: cell-based; conditions: human
[5] = target: T2, Toll-like receptor 8 (Homo sapiens) (UniProt Q9NR97); test: Agonist activity at human TLR8 expressed in HEK293 cells after 6 hrs by NFkappaB-luciferase reporter gene assay; assay type: cell-based
T2 sequence (whole entry): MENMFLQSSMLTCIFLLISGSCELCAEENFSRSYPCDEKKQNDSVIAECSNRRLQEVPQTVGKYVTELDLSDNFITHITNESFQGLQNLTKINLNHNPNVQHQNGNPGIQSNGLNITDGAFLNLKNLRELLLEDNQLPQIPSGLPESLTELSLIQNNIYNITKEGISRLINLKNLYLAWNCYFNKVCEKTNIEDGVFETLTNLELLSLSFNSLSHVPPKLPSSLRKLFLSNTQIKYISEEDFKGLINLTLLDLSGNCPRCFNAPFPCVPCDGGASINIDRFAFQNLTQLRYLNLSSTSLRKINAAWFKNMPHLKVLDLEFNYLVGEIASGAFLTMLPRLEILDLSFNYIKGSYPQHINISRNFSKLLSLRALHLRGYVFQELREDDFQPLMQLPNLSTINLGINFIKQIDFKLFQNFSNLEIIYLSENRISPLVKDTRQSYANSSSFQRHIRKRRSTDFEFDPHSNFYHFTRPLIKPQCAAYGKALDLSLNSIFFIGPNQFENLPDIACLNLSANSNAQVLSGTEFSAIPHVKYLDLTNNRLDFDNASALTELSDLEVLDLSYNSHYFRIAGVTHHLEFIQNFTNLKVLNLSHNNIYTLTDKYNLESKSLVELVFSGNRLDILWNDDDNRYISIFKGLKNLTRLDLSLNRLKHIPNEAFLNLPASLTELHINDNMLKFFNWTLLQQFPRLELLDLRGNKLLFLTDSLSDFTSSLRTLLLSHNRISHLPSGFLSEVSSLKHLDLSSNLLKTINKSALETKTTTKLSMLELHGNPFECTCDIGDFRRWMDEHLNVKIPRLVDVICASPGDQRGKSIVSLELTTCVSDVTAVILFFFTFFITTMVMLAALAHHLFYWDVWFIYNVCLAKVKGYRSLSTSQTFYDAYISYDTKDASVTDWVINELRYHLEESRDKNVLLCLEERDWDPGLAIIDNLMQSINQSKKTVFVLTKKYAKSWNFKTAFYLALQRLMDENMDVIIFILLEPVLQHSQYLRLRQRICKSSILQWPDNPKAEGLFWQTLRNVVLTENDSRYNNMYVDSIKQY

[6] = Drug metabolism in mouse liver microsomes at 1 uM after 15 mins; assay type: ADME, microsome; conditions: read-out: Drug metabolism
Homo sapiens = organism: Homo sapiens; test: Selectivity index, ratio of MEC for human TLR8 to MEC for human TLR7
[7] = Drug metabolism in human liver microsomes at 1 uM after 15 mins; assay type: ADME, microsome; conditions: read-out: Drug metabolism

Chain of Voltage-gated inwardly rectifying potassium channel KCNH2 (Q12809 whole entry): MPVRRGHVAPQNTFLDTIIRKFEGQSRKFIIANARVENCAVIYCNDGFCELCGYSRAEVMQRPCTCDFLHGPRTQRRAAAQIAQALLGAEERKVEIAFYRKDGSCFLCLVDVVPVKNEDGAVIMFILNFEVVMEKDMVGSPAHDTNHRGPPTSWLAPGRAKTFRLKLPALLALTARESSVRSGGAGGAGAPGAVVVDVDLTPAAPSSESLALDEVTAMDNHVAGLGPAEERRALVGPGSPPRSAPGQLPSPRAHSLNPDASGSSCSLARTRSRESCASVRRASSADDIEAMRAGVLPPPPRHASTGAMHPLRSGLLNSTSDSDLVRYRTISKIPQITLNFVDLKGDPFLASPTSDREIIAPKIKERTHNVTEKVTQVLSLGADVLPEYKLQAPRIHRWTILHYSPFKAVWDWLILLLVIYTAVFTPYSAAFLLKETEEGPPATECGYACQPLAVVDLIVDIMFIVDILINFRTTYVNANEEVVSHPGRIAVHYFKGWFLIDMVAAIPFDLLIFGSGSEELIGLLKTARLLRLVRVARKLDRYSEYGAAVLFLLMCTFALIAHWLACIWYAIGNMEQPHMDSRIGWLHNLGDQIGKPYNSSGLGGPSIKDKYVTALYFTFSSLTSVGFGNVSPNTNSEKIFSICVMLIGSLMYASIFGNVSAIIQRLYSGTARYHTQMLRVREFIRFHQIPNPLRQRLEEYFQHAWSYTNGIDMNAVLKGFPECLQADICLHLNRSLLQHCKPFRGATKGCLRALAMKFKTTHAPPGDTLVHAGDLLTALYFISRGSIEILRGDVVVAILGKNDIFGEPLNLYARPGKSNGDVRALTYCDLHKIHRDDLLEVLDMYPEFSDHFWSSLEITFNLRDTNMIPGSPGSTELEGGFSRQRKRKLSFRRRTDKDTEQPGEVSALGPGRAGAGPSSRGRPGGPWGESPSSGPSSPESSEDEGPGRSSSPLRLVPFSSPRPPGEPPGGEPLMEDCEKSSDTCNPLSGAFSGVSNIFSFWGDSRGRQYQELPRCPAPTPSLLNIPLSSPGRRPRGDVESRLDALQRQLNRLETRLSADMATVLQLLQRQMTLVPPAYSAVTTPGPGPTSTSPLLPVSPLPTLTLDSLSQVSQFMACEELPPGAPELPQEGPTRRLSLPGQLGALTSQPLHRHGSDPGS

For `CCCCNc1nc(N)nc2c1CN(C(=O)c1csc(C)n1)CC2`, the IC50 [1] was 1.3 µM, the MEC [2] was 2 µM and the MEC [3] was 0.53 µM. The CC50 at 6 h [4] was > 24 µM, the MEC [5] was 1.8 µM and the metabolised at 0.25 h, 1 µM [6] was 88%.
In the case of `CCCCNc1nc(N)nc2c1CCN(C(=O)c1ccccc1)C2`, the MEC [2] is reported as 3.9 µM, the CC50 at 6 h [4] is reported as > 24 µM and the MEC [5] is reported as 0.8 µM. The Selectivity Index (Homo sapiens) was 5.
For `CCC[C@@H](CCO)Nc1nc(N)nc2c1CN(C(=O)c1cccs1)CC2`, the IC50 [1] was 7.6 µM, the MEC [2] was 0.2 µM and the metabolised at 0.25 h, 1 µM [7] was 22%. For the same compound, the MEC [3] was 0.2 µM, the CC50 at 6 h [4] was > 24 µM and the MEC [5] was 1.1 µM. It also gave a metabolised at 0.25 h, 1 µM [6] of 73%.
In the case of `CCCC[C@@H](CCO)Nc1nc(N)nc2c1CN(C(=O)c1csc(C)n1)CC2`, the IC50 [1] is reported as > 50 µM, the MEC [2] is reported as 1 µM and the metabolised at 0.25 h, 1 µM [7] is reported as 30%. The MEC [3] was 0.2 µM, the CC50 at 6 h [4] was > 24 µM and the MEC [5] was 6.6 µM. It also gave a metabolised at 0.25 h, 1 µM [6] of 71%.
With `CCCC[C@@H](CCO)Nc1nc(N)nc2c1CN(C(=O)c1cccs1)CC2` the IC50 [1] was 6.9 µM, the MEC [2] was 0.2 µM and the metabolised at 0.25 h, 1 µM [7] was 37%. For the same compound, the MEC [3] was 0.2 µM, the CC50 at 6 h [4] was > 24 µM and the MEC [5] was 1.7 µM. It also gave a metabolised at 0.25 h, 1 µM [6] of 90%.

Source: ChEMBL document CHEMBL4265889, “Design and synthesis of tetrahydropyridopyrimidine based Toll-Like Receptor (TLR) 7/8 dual agonists” (Bioorg Med Chem Lett, 2018)
